Reference: patent US5053431A, “Derivatives of chrysophanol as topoisomerase II inhibitors” (Sloan-Kettering Institute For Cancer Research, priority 1990, dated 1991)
Converted amounts (≈) assume the structure as drawn. Read-outs that look alike come from different tables or passages of the source.

Legend:
[1] = tested on: DNA (native and thermally denatured); assay: Spectrophotometric study of DNA interaction; assay type: binding, calf thymus; conditions: for interaction with DNA: absorption spectra, native and thermally denatured DNA; for interaction with DNA on increase of salt concentration: Na concentration increased from 0.01 to 0.1 M
Procedure: Some representative compounds were studied for their ability to interact with nucleic acids in solution by comparison of the electronic spectrum of drug alone with that of the drug in the presence of an excess of nucleic acid. All drugs studied have an absorption band in the visible region, separate from the absorption band of the nucleic acids, and therefore any changes in band intensity and position were indicative of drug chromophore-DNA interaction.
Absorption spectra were measured with an IBM 9410 UV-visible spectrometer interfaced to an HP 9826 computer. Small volumes of the stock drug solutions (2 mg/mL in Me2 SO) were added to 2 mL of buffer (0.01 or 0.1 M NaCl, 5 mM Hepes, pH 7) to obtain a final drug concentration of 5-15 μM, or to the solution of native or thermally denatured DNA (0.2 and 0.1 mM, respectively) in the buffer. After incubation at room temperature for 10 min, the spectra were recorded in the 300-600 nm range (increment 1 nm) and corrected by subtracting the spectrum of the blank which was measured before addition of the drug.

[2] = tested on: mouse leukemia L1210 cells; assay: Inhibition of L1210 cell growth; assay type: cell-based
Procedure: Preliminary biological data for inhibiting cell growth of murine L1210 leukemic cells and human acute promyelocytic leukemia cells (HL-60) during 72 h of exposure to the compounds are given in Table IV. The potencies for inhibiting [^3 H]TdR incorporation into DNA in HL-60 cells during the initial 30-min period are also given in Table IV. It is interesting to note that 1,8-di-O-methyl derivatives are uniformly devoid of activity against L1210 leukemic cells. […] The B/A ratios allow an indirect estimation of whether or not cytotoxicities exerted by these analogues are primarily due to initial inhibition of DNA synthesis. […] Whether these analogues, like m-AMSA, ellipticine, or anthracyclines, act by inhibiting DNA topoisomerase II remains to be explored. […] Our preliminary experiments indicate that the compounds arrest cells in the S and/or G2 phases of the cell cycle (unpublished results).

[3] = tested on: human leukemia HL-60 cells; assay: HL-60 cell growth inhibition (72 h); assay type: cell-based; conditions: HL-60, 72 h, read-out: ID50, M [HL-60 cell growth (72 h)] (A)
Procedure: For cell growth inhibition studies, HL-60 cells […]) were grown in RPMI 1640 media at 37° C. in humidified 5% CO2 for 72 h. Viable cells were counted with the trypan blue exclusion method. The fractional inhibitions at four or five concentrations of compounds (in 0.2% DMSO) were analyzed with a median-effect plot (Chou, T.-C., et al., Adv. Enzyme Regul. 22:27 (1984)) by using a computer program. (Chou, J.; Chou, T.-C. Dose-Effect Analyses with Microcomputer. Quantitation of ID50, LD50, Synergism, Antagonism, Low-dose Risk, Receptor-Binding and Enzyme Kinetics; IBM-PC Series, Elsevier-Biosoft, Elsevier Scientific: Cambridge, U.K., (1986)). The median-effect concentration (ID50) was automatically determined for the x intercept of the median-effect plot. Cell growth in the absence of a compound and in the presence of DMSO was used as a control. DMSO (0.2%) alone inhibited cell growth 3.8±1.2% during the 72-h incubation period.

[4] = tested on: [^3 H]TdR incorporation into DNA in HL-60 cells; assay: Inhibition of [3H]TdR incorporation into DNA in HL-60 cells (initial 30 min); assay type: cell-based, human; conditions: for IC50: HL-60, initial 30 min exposure, read-out: ID50, M (HL-60 TdR into DNA (B)); for B/A: ratio of ID50 for TdR incorporation (B) to ID50 for cell growth (A), HL-60
Procedure: For precursor incorporation studies, each compound at four to six concentrations (0.2% DMSO) was preincubated with HL-60 cells (2.5×10^6 /Ml) for 15 min prior to the addition of [^3 H-methyl]TdR (1 μCi, 0.15 nmol/mL) and was incubated for 30 min. […] The incorporation of radioactivity in DNA in the absence of an analogue in the presence of DMSO was used as a control.

[5] = tested on: cancer; conditions: literature; cited from earlier work
[6] = tested on: Topo II; assay: Heat reversal of protein-linked DNA complex; assay type: biochemical, human (HL-60); conditions: 65 degrees C
Procedure: This experiment concerns Topoisomerase II (Topo II)-mediated DNA cleavage activity induced by chrysophanol derivatives. 3-(bis[2-chloroethyl]amino)methyl-1,8-dihydroxy-9,10-anthraquinone (SK-31662) and 3-(2-hydroxyethylamino)methyl-1,8-dihydroxy-9,10-anthraquinone (SK-31694) have antileukemic activity with IC>es of 0.14 and 0.86 uM, respectively. SK-31662 and SK-31694 inhibit kDNA decatenation at 48 and 38 uM, respectively.

[7] = tested on: DNA topoisomerase II; conditions: literature; cited from earlier work
[8] = Mus musculus, L1210, Table I, read-out: ID50 (the source's name)
[9] = Mus musculus, L1210, Table I, read-out: ID50 (μg/mL)
[10] = Mus musculus, Table IV, L1210, 72 h exposure, read-out: ID50, M (L1210 cell growth)

3-[(Diethylamino)methyl]-(or 8)-hydroxy-8(or 1)-methoxy-9,10-anthraquinone [Xa-1]
interaction with DNA [1]: interact with both native and thermally denatured DNA but more strongly with native DNA
IC50 ([2]; Table II, antileukemic activity, read-out: L1210: ID50): 11.9 µM
IC50 ([3]; 0.2% DMSO): 5.2 µM
IC50 [4]: 14 µM
B/A [4]: 2.7

Cc1c2ccncc2c(C)c2c1[nH]c1ccc(O)cc12 [9-hydroxyellipticine]
anticancer activity [5]: potent anticancer agent

COc1cc([C@@H]2c3cc4c(cc3[C@@H](O[C@@H]3O[C@@H]5CO[C@@H](C)O[C@H]5[C@H](O)[C@H]3O)[C@H]3COC(=O)[C@H]23)OCO4)cc(OC)c1O [VP-16, etoposide, reference compound]
reversal of protein-linked DNA by heat [6]: reduced during 0.5 min exposure to 65 °C
stabilization of cleavable complex between DNA topoisomerase II and DNA [7]: stabilize the cleavable complex between DNA topoisomerase II and DNA

CCN(CC)Cc1cc(O)c2c(c1)C(=O)c1cccc(O)c1C2=O [XIa-1, 3-[N,N-diethylamino)methyl-1,8-dihydroxy-9,10-anthraquinone]
interaction with DNA [1]: interact with both native and thermally denatured DNA but more strongly with native DNA
IC50 [2, 8]: 2.8 µM
IC50 [2, 9]: 0.99 µg/mL
IC50 ([2]; Mus musculus, L1210, Table II, antileukemic activity, read-out: L1210: ID50): 2.75 µM
IC50 [2, 10]: 280 µM
IC50 ([3]; Homo sapiens, 0.2% DMSO): 1.8 µM
IC50 ([4]; Homo sapiens, 0.5 h): 14 µM
B/A [4]: 7.8

CCNCc1cc(O)c2c(c1)C(=O)c1cccc(O)c1C2=O [XIa-5, 3-[N-ethylamino)methyl-1,8-dihydroxy-9,10-anthraquinone]
IC50 [2, 8]: 0.77 µM
IC50 [2, 9]: 0.26 µg/mL
IC50 ([3]; Homo sapiens, 0.2% DMSO): 8.7 µM
IC50 ([4]; Homo sapiens, 0.5 h): 18 µM
B/A [4]: 2.1

NCc1cc(O)c2c(c1)C(=O)c1cccc(O)c1C2=O [XIa-8]
IC50 [2, 10]: 8.5 µM
IC50 ([3]; Homo sapiens, 0.2% DMSO): 11 µM
IC50 ([4]; Homo sapiens, 0.5 h): 25 µM
B/A [4]: 2.3

CN(C)Cc1cc(O)c2c(c1)C(=O)c1cccc(O)c1C2=O [XIa-9]
IC50 [2, 10]: 2.2 µM
IC50 ([3]; Homo sapiens, 0.2% DMSO): 2.7 µM
IC50 ([4]; Homo sapiens, 0.5 h): 9.3 µM
B/A [4]: 3.3

CCCCNCc1cc(O)c2c(c1)C(=O)c1cccc(O)c1C2=O [XIa-10]
IC50 [2, 10]: 4.6 µM
IC50 ([3]; Homo sapiens, 0.2% DMSO): 4.1 µM
IC50 ([4]; Homo sapiens, 0.5 h): 25 µM
B/A [4]: 6.1

O=C1c2cccc(O)c2C(=O)c2c(O)cc(CNCCCO)cc21 [XIa-11]
IC50 [2, 10]: 0.67 µM
IC50 ([3]; Homo sapiens, 0.2% DMSO): 3.2 µM
IC50 ([4]; Homo sapiens, 0.5 h): 16 µM
B/A [4]: 5.0

CC(C)NC(=O)OCCN(CCOC(=O)NC(C)C)Cc1cc(O)c2c(c1)C(=O)c1cccc(O)c1C2=O [XIa-12]
IC50 [2, 10]: 27 µM
IC50 ([3]; Homo sapiens, 0.2% DMSO): 27 µM
IC50 ([4]; Homo sapiens, 0.5 h): 17 µM
B/A [4]: 0.63

O=C1c2cccc(O)c2C(=O)c2c(O)cc(CN3CCCC3)cc21 [XIa-13]
IC50 [2, 10]: 1.6 µM
IC50 ([3]; Homo sapiens, 0.2% DMSO): 2.1 µM
IC50 ([4]; Homo sapiens, 0.5 h): 10 µM
B/A [4]: 4.8

O=C1c2cccc(O)c2C(=O)c2c(O)cc(CN3CCCCC3)cc21 [XIa-14]
IC50 [2, 10]: 4 µM
IC50 ([3]; Homo sapiens, 0.2% DMSO): 2.8 µM
IC50 ([4]; Homo sapiens, 0.5 h): 63 µM
B/A [4]: 22.5

O=C1c2cccc(O)c2C(=O)c2c(O)cc(Cn3ccnc3)cc21 [XIa-15]
IC50 [2, 10]: 7.4 µM
IC50 ([3]; Homo sapiens, 0.2% DMSO): 4.8 µM
IC50 ([4]; Homo sapiens, 0.5 h): 43 µM
B/A [4]: 9.0

CCN(CC)Cc1cc(O)c2c(c1)C(=O)c1cc(OC)cc(O)c1C2=O [XIb-1, 3-(N,N-diethylamino)methyl-1,8-dihydroxy-6-methoxy-9,10-anthraquinone]
IC50 [2, 8]: 1.16 µM
IC50 [2, 9]: 0.51 µg/mL
IC50 [2, 10]: 1.2 µM
IC50 ([3]; Homo sapiens, 0.2% DMSO): 3.4 µM
IC50 ([4]; Homo sapiens, 0.5 h): 35 µM
B/A [4]: 10.3

COc1cc(O)c2c(c1)C(=O)c1cc(CN(CCO)CCO)cc(O)c1C2=O [XIb-2, 3-[N,N-bis(2-hydroxyethyl)amino]methyl-1,8-dihydroxy-6-methoxy-9,10-anthraquinone]
interaction with DNA [1]: interact with both native and thermally denatured DNA but more strongly with native DNA
IC50 [2, 8]: 13.7 µM
IC50 [2, 9]: 5.8 µg/mL
IC50 [2, 10]: 14 µM
IC50 ([3]; Homo sapiens, 0.2% DMSO): 6.6 µM
IC50 ([4]; Homo sapiens, 0.5 h): 45 µM
B/A [4]: 5.2

COc1cc(O)c2c(c1)C(=O)c1cc(CN(CCCl)CCCl)cc(O)c1C2=O [XIb-3, 3-[N,N-bis(2-chloroethyl)amino]methyl-1,8-dihydroxy-6-methoxy-9,10-anthraquinone]
interaction with DNA on increase of salt concentration [1]: lost the ability to interact with DNA
ID50 ([2]; Table I): 0.010 µg/mL (≈ 0.0236 µM)
IC50 ([2]; Table I, read-out: ID50 (the source's name)): 0.023 µM
IC50 ([3]; 0.2% DMSO): 0.61 µM
IC50 [4]: 12 µM
B/A [4]: 19.7

CCNCc1cc(O)c2c(c1)C(=O)c1cc(OC)cc(O)c1C2=O [XIb-5, 3-(N-ethylamino)methyl-1,8-dihydroxy-6-methoxy-9,10-anthraquinone]
IC50 [2, 8]: 0.44 µM
IC50 [2, 9]: 0.18 µg/mL
IC50 [2, 10]: 0.72 µM
IC50 ([3]; Homo sapiens, 0.2% DMSO): 2.1 µM
IC50 ([4]; Homo sapiens, 0.5 h): 13 µM
B/A [4]: 6.2

COc1cc(O)c2c(c1)C(=O)c1cc(CNCCO)cc(O)c1C2=O [XIb-6, 3-[N-(2-hydroxyethyl)amino]methyl-1,8-dihydroxy-6-methoxy-9,10-anthraquinone]
interaction with DNA [1]: interact with both native and thermally denatured DNA but more strongly with native DNA
IC50 [2, 8]: 0.19 µM
IC50 [2, 9]: 0.072 µg/mL
IC50 [2, 10]: 0.5 µM
IC50 ([3]; Homo sapiens, 0.2% DMSO): 1.6 µM
IC50 ([4]; Homo sapiens, 0.5 h): 12 µM
B/A [4]: 7.5

COc1cc(O)c2c(c1)C(=O)c1cc(CNCCCl)cc(O)c1C2=O [XIb-7, 3-[N-(2-chloroethyl)amino]methyl-1,8-dihydroxy-6-methoxy-9,10-anthraquinone]
reversal of DNA induced changes in absorption spectra by Me2SO ([1]; Me2 SO to 1:1 v/v): could be reversed by addition of Me2 SO
interaction with DNA on increase of salt concentration [1]: lost the ability to interact with DNA
IC50 ([2]; Mus musculus, L1210, 72 h, read-out: ID50, M (L1210 cell growth)): 18 µM
IC50 ([3]; Homo sapiens): 9.2 µM
IC50 ([4]; Homo sapiens, 0.5 h): 220 µM
B/A [4]: 23.9

COc1cccc2c1C(=O)c1c(O)c3c(c(O)c1C2=O)C[C@@](O)(C(=O)CO)C[C@@H]3O[C@H]1C[C@H](N)[C@H](O)[C@H](C)O1 [adriamycin]
stabilization of cleavable complex between DNA topoisomerase II and DNA [7]: stabilize the cleavable complex between DNA topoisomerase II and DNA

Cc1c2ccncc2c(C)c2c1[nH]c1ccccc12 [ellipticine]
stabilization of cleavable complex between DNA topoisomerase II and DNA [7]: stabilize the cleavable complex between DNA topoisomerase II and DNA

COc1cc(NS(C)(=O)=O)ccc1Nc1c2ccccc2nc2ccccc12 [m-AMSA, 4'-(9-acridinylamino) methanesulfon-m-aniside]
effect on DNA topoisomerase II reactions [7]: inhibits the topoisomerization and catenation reactions of DNA topoisomerase II
